Series [1] can be described thus: Oral toxicity (LD50) in mice, 14 days observation. Conditions: mouse, in vivo, N=5/dose. The format is in vivo. An excerpt: Die Toxizitätsuntersuchungen werden an weiblichen NMRI-Mäusen (Körpergewicht 22 - 26 g) durchgeführt. Die Tiere (5 Tiere pro Dosis) erhalten Futter und Wasser ad libitum. Verschiedene Dosen der Substanzen werden oral verabreicht. Die Beobachtungsdauer beträgt 14 Tage. Die LD50, d.h. die Dosis bei der 50% der Tiere sterben, wird aus der Dosiswirkungskurve graphisch ermittelt.

Series [2] concerns genetisch hypertonen Ratten. The experiment in a line: Antihypertensive effect: systolic blood pressure (tail cuff) in conscious genetically hypertensive rats, oral dosing once daily on four consecutive days. The series is classed as in vivo, Ratten (Stamm SHR/N/Ibm/Bm). Conditions: for Th.W. (Therapeutische Wirksamkeit): mean of quotient over the doses of Table I. On the procedure: Zur Bestimmung der äntihypertensiven Wirkung werden die unten aufgeführten Verbindungen in den angegebenen Dosen an vier aufeinander folgenden Tagen an je 6 Ratten (Stamm SHR/N/Ibm/Bm, ♂, 250-350 g) mit genetisch bedingtem Hochdruck (RR > 180 mmHg) täglich einmal mittels Schlundsonde verabfolgt. Die Messung des Blutdrucks erfolgt jeweils 2, 6 und gegebenenfalls 24 Stunden nach Substanzgabe.
Die Blutdruckmessung wird in einer Wärmekammer bei 36°C vorgenommen, um eine bessere Durchblutung der Schwanzarterie zu erreichen. Hierzu werden die Tiere in perforierte Lochblechkäfige verbracht und 20 - 40 Min. nach Beginn der Aufwärmung gemessen. Zur Messung des systolischen arteriellen Drucks wird eine ringförmige Manschette mit aufblasbarer Gummimembran zur Unterbindung der Durchblutung und ein ringförmiger Piezökristallaufnehmer zur Erfassung der Pulswellen auf den Schwanz aufgeschoben. Nach erfolgter Unterbindung des Blutstroms in der Schwanzarterie wird der Manschettendruck kontinuierlich reduziert. […] Pulssignale und Druckverlauf werden zur Auswertung graphisch aufgezeichnet.
Zur Gewöhnung an den Meßvorgang werden die Tiere vor Substanzprüfung 14 Tage traniniert. In der zweiten Trainingswoche werden Blutdruck-Vorwerte erhoben. Tiergruppen, die Substanz erhälten, werden gegen eine Kontrollgruppe geprüft.

Setting [3] is: day 1 (2h, 6h and 24h Th.W. averaged), normalised to Th.W. Fusarsäure = 1.
The mark [4] stands for this setting: day 2, normalised to Th.W. Fusarsäure = 1.
The mark [5] stands for this setting: day 3 (6h and 24h Th.W. averaged), normalised to Th.W. Fusarsäure = 1.
[6] abbreviates: day 4 (2h and 6h Th.W. averaged), normalised to Th.W. Fusarsäure = 1.

The term LD50 denotes the dose expected to kill half of the subjects tested. The low end stands for greater toxicity, the high end for lower toxicity.

Where “and” joins values, the source holds several entries; their conditions need not be identical. Identical values can stand only once.

In the case of `CCN(CC)CCCNC(=O)c1ccc(-c2ccc(Cl)cc2)cn1` [Beispiel 9], the median lethal dose (LD50) at 336 h in series [1] was more than 1000 mg/kg.

Turning to `CCN(CC)CCCOC(=O)c1ccc(-c2ccccc2)cn1` [Beispiel 4], the “Th.I. Fusarsäure = 1” value in series [2] (setting [3]) is recorded as 10,9; in series [2] (setting [4]), 7,2; in series [2] (setting [5]), 6,5; in series [2] (setting [6]) it was 3,3.

Regarding `CCN(CC)CCCOC(=O)c1ccc(-c2ccccc2)cn1` [lfd. Nr. 4, 5-Phenylpyridin-2-carbonsäure-(3-diethylaminopropyl)-ester], the “BP (%-Änderungen)” value in series [2] (10,0 mg/kg p.o., day 1, 2h) is recorded as -4%; in series [2] (10,0 mg/kg p.o., day 1, 6h), -10%; in series [2] (10,0 mg/kg p.o., day 1, 24h), -6%; in series [2] (10,0 mg/kg p.o., day 2, 6h) it was -10%; in series [2] (10,0 mg/kg p.o., day 3, 6h), -13%; in series [2] (10,0 mg/kg p.o., day 3, 24h), -12%. Further, the “BP (%-Änderungen)” value in series [2] (10,0 mg/kg p.o., day 4, 2h) is -13%; in series [2] (10,0 mg/kg p.o., day 4, 6h), -12%; in series [2] (20,0 mg/kg p.o., day 1, 2h), -3%; in series [2] (20,0 mg/kg p.o., day 1, 6h), -2%; in series [2] (20,0 mg/kg p.o., day 1, 24h), -6%; in series [2] (20,0 mg/kg p.o., day 2, 6h) it was -8%. Further, the “BP (%-Änderungen)” value in series [2] (20,0 mg/kg p.o., day 3, 6h) was -14%; in series [2] (20,0 mg/kg p.o., day 3, 24h) it was -5%; in series [2] (20,0 mg/kg p.o., day 4, 2h), -6%; in series [2] (20,0 mg/kg p.o., day 4, 6h) it was -9%. Besides, the “Th.I. Fusarsäure = 1” value is recorded as 16,2 in series [2] (day 1 (2h, 6h and 24h Th.W. averaged), normalised to Th.W. Fusarsäure = 1, listed as 5); 23,2 in series [2] (day 2, normalised to Th.W. Fusarsäure = 1, listed as 5); 22,5 in series [2] (day 3 (6h and 24h Th.W. averaged), normalised to Th.W. Fusarsäure = 1, listed as 5); 6,0 in series [2] (day 4 (2h and 6h Th.W. averaged), normalised to Th.W. Fusarsäure = 1, listed as 5). In addition, the “Th.W. (Therapeutische Wirksamkeit)” value in series [2] (day 1, 2h) was -11,8 %-Änderung BP / µmol/kg x 100; in series [2] (day 1, 6h) it was -23,7 %-Änderung BP / µmol/kg x 100; in series [2] (day 1, 24h) it was -19,4 %-Änderung BP / µmol/kg x 100; in series [2] (day 2, 6h), -30,2 %-Änderung BP / µmol/kg x 100; in series [2] (day 3, 6h) it was -43,1 %-Änderung BP / µmol/kg x 100; in series [2] (day 3, 24h), -31,2 %-Änderung BP / µmol/kg x 100. Besides, the “Th.W. (Therapeutische Wirksamkeit)” value in series [2] (day 4, 2h) is recorded as -34,5 %-Änderung BP / µmol/kg x 100; in series [2] (day 4, 6h) it was -35,5 %-Änderung BP / µmol/kg x 100.

With `CCCCc1ccc(C(=O)OCCCN(C)C)nc1` [lfd. Nr. 3, 5-n-Butylpyridin-2-carbonsäure-(3-dimethylaminopropyl)-ester], the “BP (%-Änderungen)” value in series [2] (20,0 mg/kg p.o., day 1, 2h, listed as 2) is -5% and -8%; in series [2] (20,0 mg/kg p.o., day 1, 6h, listed as 2), -10% and -13%; in series [2] (20,0 mg/kg p.o., day 1, 24h) it was 0%; in series [2] (20,0 mg/kg p.o., day 2, 6h, listed as 2), -6% and -9%; in series [2] (20,0 mg/kg p.o., day 3, 6h, listed as 2), -4% and -7%; in series [2] (20,0 mg/kg p.o., day 3, 24h), -2%. Also, the “BP (%-Änderungen)” value in series [2] (20,0 mg/kg p.o., day 4, 2h, listed as 2) is -5% and -8%; in series [2] (20,0 mg/kg p.o., day 4, 6h, listed as 2) it was -7% and -10%. In addition, the “Th.I. Fusarsäure = 1” value in series [2] (setting [3]) is 4,3; in series [2] (setting [4]) it was 5,2; in series [2] (setting [5]) it was 2,5; in series [2] (setting [6]), 1,1. Moreover, the “Th.W. (Therapeutische Wirksamkeit)” value in series [2] (day 1, 2h) is -5,6 %-Änderung BP / µmol/kg x 100; in series [2] (day 1, 6h), -10,3 %-Änderung BP / µmol/kg x 100; in series [2] (day 1, 24h), 1,3 %-Änderung BP / µmol/kg x 100; in series [2] (day 2, 6h), -6,7 %-Änderung BP / µmol/kg x 100; in series [2] (day 3, 6h) it was -4,5 %-Änderung BP / µmol/kg x 100; in series [2] (day 3, 24h), 0,4 %-Änderung BP / µmol/kg x 100. Further, the “Th.W. (Therapeutische Wirksamkeit)” value was -5,6 %-Änderung BP / µmol/kg x 100 in series [2] (day 4, 2h) and -7,6 %-Änderung BP / µmol/kg x 100 in series [2] (day 4, 6h).

Take `CN(C)CCCNC(=O)c1ccc(-c2ccccc2)cn1` [lfd. Nr. 6, 5-Phenylpyridin-2-carbonsäure-(3-dimethylaminopropyl)-amid]: the “BP (%-Änderungen)” value in series [2] (6,4 mg/kg p.o., day 1, 2h, listed as 11) is on record as “+2%”; in series [2] (6,4 mg/kg p.o., day 1, 6h, listed as 11), -1%; in series [2] (6,4 mg/kg p.o., day 1, 24h, listed as 11), “+10%”; in series [2] (6,4 mg/kg p.o., day 2, 6h, listed as 11) it was -14%; in series [2] (6,4 mg/kg p.o., day 3, 6h, listed as 11), -10%; in series [2] (6,4 mg/kg p.o., day 3, 24h, listed as 11), “+4%”. The “BP (%-Änderungen)” value is given as -10% in series [2] (6,4 mg/kg p.o., day 4, 6h, listed as 11); -7% in series [2] (25,6 mg/kg p.o., day 1, 2h, listed as 11); -9% in series [2] (25,6 mg/kg p.o., day 1, 6h, listed as 11); “+4%” in series [2] (25,6 mg/kg p.o., day 1, 24h); “+3%” in series [2] (25,6 mg/kg p.o., day 2, 6h, listed as 11); -15% in series [2] (25,6 mg/kg p.o., day 3, 6h, listed as 11). Also, the “BP (%-Änderungen)” value in series [2] (25,6 mg/kg p.o., day 3, 24h, listed as 11) is -10%. Besides, the “Th.I. Fusarsäure = 1” value in series [2] (day 1 (2h, 6h and 24h Th.W. averaged), normalised to Th.W. Fusarsäure = 1, listed as 11) is reported as -25,7; in series [2] (day 2, normalised to Th.W. Fusarsäure = 1, listed as 11) it was 36,9; in series [2] (day 3 (6h and 24h Th.W. averaged), normalised to Th.W. Fusarsäure = 1, listed as 11) it was 8,0; in series [2] (day 4 (2h and 6h Th.W. averaged), normalised to Th.W. Fusarsäure = 1, listed as 11) it was 5,2. The “Th.W. (Therapeutische Wirksamkeit)” value in series [2] (day 1, 2h) is listed as 0,9 %-Änderung BP / µmol/kg x 100; in series [2] (day 1, 6h), -11,8 %-Änderung BP / µmol/kg x 100; in series [2] (day 1, 24h), 39,9 %-Änderung BP / µmol/kg x 100; in series [2] (day 2, 6h), -48,0 %-Änderung BP / µmol/kg x 100; in series [2] (day 3, 6h) it was -49,9 %-Änderung BP / µmol/kg x 100; in series [2] (day 3, 24h), 23,6 %-Änderung BP / µmol/kg x 100. The “Th.W. (Therapeutische Wirksamkeit)” value in series [2] (day 4, 6h) was -36,2 %-Änderung BP / µmol/kg x 100.

These data come from patent EP0123700A1, “Substituted picolinic acids, processes for their preparation, their use, and pharmaceutical preparations containing them” (Byk Gulden Lomberg Chemische Fabrik GmbH, priority 1983, dated 1984).
